{"source": "patent US20260317319A1", "about": "“NOVEL ERGOLINES AND METHODS OF TREATING MOOD DISORDERS” (Gilgamesh Pharma Inc., priority 2023, published 2026)", "key": {"D2 dopamine receptor": {"target": "T1, D2 dopamine receptor (Homo sapiens, UniProt P14416)", "T1 construct": "expressed in transfected cells", "T1 sequence (P14416 whole entry)": "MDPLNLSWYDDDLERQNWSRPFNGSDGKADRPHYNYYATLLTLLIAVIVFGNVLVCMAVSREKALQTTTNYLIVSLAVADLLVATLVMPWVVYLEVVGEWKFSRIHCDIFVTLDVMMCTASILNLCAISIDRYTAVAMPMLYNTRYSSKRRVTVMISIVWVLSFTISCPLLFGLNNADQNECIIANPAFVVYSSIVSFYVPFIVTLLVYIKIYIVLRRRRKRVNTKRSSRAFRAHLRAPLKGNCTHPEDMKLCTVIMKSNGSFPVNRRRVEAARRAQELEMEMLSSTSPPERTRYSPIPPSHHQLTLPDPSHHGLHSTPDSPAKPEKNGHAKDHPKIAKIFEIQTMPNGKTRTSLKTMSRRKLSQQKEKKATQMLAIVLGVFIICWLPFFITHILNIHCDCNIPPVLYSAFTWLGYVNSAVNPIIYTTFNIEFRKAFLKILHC", "test": "Ca2+ flux functional assay at D2", "assay_type": "cell-based", "conditions": "for Emax: agonist, Ca2+ flux, max dose, read-out: D2 % Act @ Max Dose", "experimental": "Disclosed compounds were tested for agonist activity at several adrenergic (Alpha1A and Alpha2A) and dopamine (D1 and D2) receptor subtypes using Ca^2+ flux functional assays, with the results summarized in Table 6. Selectivity for the 5-HT2A receptor over these other targets varied depending on the specific target and compound.\nFunctional Assays at Adrenergic and Dopamine Receptors. Agonist activity at Alpha1A, Alpha2A, D1, and D2 receptors was determined using a FLIPR Ca^2+ flux assay at WuXi AppTec (Hong Kong) Limited according to their standard protocols. Briefly, stably transfected cells expressing the receptor of interest were grown and plated in a 384 well plate and incubated at 37° C. and 5% CO2 overnight. A solution of 250 mM probenecid in 1 mL FLIPR assay buffer was prepared fresh. This was combined with a fluorescent dye (Fluo-4 Direct™) to make a final assay concentration of 2.5 mM. Compounds were diluted 1:3.16 for 10 points and 750 nL was added to a 384 well compound plate using ECHO along with 30 μL assay buffer. The fluorescent dye was then added to the assay plate along with assay buffer to a final volume of 40 μL. The cell plate was incubated for 50 min at 37° C. and 5% CO2 and placed into the FLIPR Tetra along with the compound plate. 10 μL of references and compounds were then transferred from the compound plate into the cell plate and the fluorescent signal was read."}, "5-HT2C receptor": {"target": "T2, 5-HT2C receptor (Homo sapiens, UniProt P28335)", "T2 sequence (P28335 33-458)": "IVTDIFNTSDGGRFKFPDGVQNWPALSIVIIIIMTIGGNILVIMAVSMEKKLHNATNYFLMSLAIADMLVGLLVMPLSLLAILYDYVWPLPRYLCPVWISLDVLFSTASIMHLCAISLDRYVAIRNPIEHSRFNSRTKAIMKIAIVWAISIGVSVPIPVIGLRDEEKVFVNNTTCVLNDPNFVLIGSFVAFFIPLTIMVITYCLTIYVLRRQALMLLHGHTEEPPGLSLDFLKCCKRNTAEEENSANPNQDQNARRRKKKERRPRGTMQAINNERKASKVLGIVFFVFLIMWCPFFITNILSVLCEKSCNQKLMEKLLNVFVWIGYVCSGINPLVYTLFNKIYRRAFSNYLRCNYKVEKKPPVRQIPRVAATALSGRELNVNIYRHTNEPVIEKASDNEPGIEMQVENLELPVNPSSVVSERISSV", "test": "cell-based", "conditions": "agonist, Ca2+ flux, Eurofins DiscoverX protocol, max dose; read-out: 5-HT2C % Act @ Max Dose"}, "[1]": {"target": "T3, Alpha1A adrenergic receptor (Homo sapiens, UniProt P35348)", "T3 construct": "expressed in transfected cells", "T3 sequence (P35348 1-466)": "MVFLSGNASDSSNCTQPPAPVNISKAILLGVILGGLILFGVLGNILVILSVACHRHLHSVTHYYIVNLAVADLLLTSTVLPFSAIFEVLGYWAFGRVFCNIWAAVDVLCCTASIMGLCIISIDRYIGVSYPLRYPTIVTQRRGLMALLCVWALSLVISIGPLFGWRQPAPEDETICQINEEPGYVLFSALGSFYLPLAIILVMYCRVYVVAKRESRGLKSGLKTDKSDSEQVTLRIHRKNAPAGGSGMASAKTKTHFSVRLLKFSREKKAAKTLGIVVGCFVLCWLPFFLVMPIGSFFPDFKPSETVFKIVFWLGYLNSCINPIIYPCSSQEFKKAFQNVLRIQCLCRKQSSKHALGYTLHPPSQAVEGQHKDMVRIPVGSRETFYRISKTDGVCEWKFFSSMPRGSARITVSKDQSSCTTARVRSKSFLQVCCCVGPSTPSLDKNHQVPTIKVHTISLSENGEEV", "test": "Ca2+ flux functional assay at Alpha1A", "assay_type": "cell-based", "conditions": "for maximal efficacy at Alpha1A: \"higher\" is compared to the N-methyl compound LSD; for Emax: agonist, Ca2+ flux, max dose, read-out: Alpha 1A % Act @ Max Dose"}}}
{"smiles": "CCN(CC)C(=O)[C@@H]1C=C2c3cccc4[nH]cc(c34)C[C@H]2N(CCCF)C1", "note": "[Compound 2, (6aR,9R)—N,N-diethyl-7-(3-fluoropropyl)-4,6,6a,7,8,9-hexahydroindolo[4,3-fg]quinoline-9-carboxamide]", "values": [{"measurement": "Emax", "setting": "D2 dopamine receptor", "value": 91.2, "unit": "%"}, {"measurement": "maximal efficacy at D2", "setting": "D2 dopamine receptor; compared to the N-methyl compound LSD", "value": "substantially higher maximal efficacy"}, {"measurement": "Emax", "setting": "5-HT2C receptor", "value": 105, "unit": "%"}, {"measurement": "maximal efficacy at Alpha1A", "setting": "[1]", "value": "substantially higher maximal efficacy"}, {"measurement": "Emax", "setting": "[1]", "value": 110, "unit": "%"}]}
{"smiles": "CCN(CC)C(=O)[C@@H]1C=C2c3cccc4[nH]cc(c34)C[C@H]2N(Cc2ccccc2OC)C1", "note": "[Compound 10, (6aR,9R)—N,N-diethyl-7-(2-methoxybenzyl)-4,6,6a,7,8,9-hexahydroindolo[4,3-fg]quinoline-9-carboxamide]", "values": [{"measurement": "Emax", "setting": "D2 dopamine receptor", "value": 86.9, "unit": "%"}, {"measurement": "Emax", "setting": "5-HT2C receptor", "value": 13.4, "unit": "%"}, {"measurement": "maximal efficacy at Alpha1A", "setting": "[1]", "value": "very low efficacy agonists"}, {"measurement": "Emax", "setting": "[1]", "value": 26.6, "unit": "%"}]}
